Laboratory results from PubChem BioAssay (NCI).
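Protocol summary: plate cells (96-well), add compound at 5 concentrations, incubate 48 h, interpolate endpoints linearly. At the GI50, growth is halved. TGI is the concentration that stops growth completely.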

Assays:
Assay in all cases: NCI-60 cell line screen, 48 h
786-0 renal = test system: 786-0 renal
A498 renal = test system: A498 renal
A549 NSCLC = test system: A549 NSCLC
ACHN renal = test system: ACHN renal
BT-549 breast = test system: BT-549 breast
CCRF-CEM leukemia = test system: CCRF-CEM leukemia
COLO 205 colon = test system: COLO 205 colon
DU-145 prostate = test system: DU-145 prostate
EKVX NSCLC = test system: EKVX NSCLC
HCC-2998 colon = test system: HCC-2998 colon
HCT-116 colon = test system: HCT-116 colon
HCT-15 colon = test system: HCT-15 colon
HL-60(TB) leukemia = test system: HL-60(TB) leukemia
HOP-62 NSCLC = test system: HOP-62 NSCLC
HOP-92 NSCLC = test system: HOP-92 NSCLC
HS 578T breast = test system: HS 578T breast
HT29 colon = test system: HT29 colon
IGROV1 ovarian = test system: IGROV1 ovarian
K-562 leukemia = test system: K-562 leukemia
KM12 colon = test system: KM12 colon
LOX IMVI melanoma = test system: LOX IMVI melanoma
M14 melanoma = test system: M14 melanoma
MALME-3M melanoma = test system: MALME-3M melanoma
MCF7 breast = test system: MCF7 breast
MDA-MB-231 breast = test system: MDA-MB-231 breast
MDA-MB-435 = test system: MDA-MB-435
MOLT-4 leukemia = test system: MOLT-4 leukemia
NCI-H226 lung = test system: NCI-H226 lung
NCI-H23 lung = test system: NCI-H23 lung
NCI-H460 lung = test system: NCI-H460 lung
NCI-H522 lung = test system: NCI-H522 lung
NCI/ADR-RES ovarian = test system: NCI/ADR-RES ovarian
OVCAR-3 ovarian = test system: OVCAR-3 ovarian
OVCAR-4 ovarian = test system: OVCAR-4 ovarian
OVCAR-5 ovarian = test system: OVCAR-5 ovarian
OVCAR-8 ovarian = test system: OVCAR-8 ovarian
PC-3 prostate = test system: PC-3 prostate
RPMI-8226 leukemia = test system: RPMI-8226 leukemia
RXF 393 renal = test system: RXF 393 renal
SF-268 CNS = test system: SF-268 CNS
SF-295 CNS = test system: SF-295 CNS
SF-539 CNS = test system: SF-539 CNS
SK-MEL-28 melanoma = test system: SK-MEL-28 melanoma
SK-MEL-5 melanoma = test system: SK-MEL-5 melanoma
SK-OV-3 ovarian = test system: SK-OV-3 ovarian
SN12C renal = test system: SN12C renal
SNB-19 CNS = test system: SNB-19 CNS
SNB-75 CNS = test system: SNB-75 CNS
SR leukemia = test system: SR leukemia
SW-620 colon = test system: SW-620 colon
T-47D breast = test system: T-47D breast
TK-10 renal = test system: TK-10 renal
U251 CNS = test system: U251 CNS
UACC-257 melanoma = test system: UACC-257 melanoma
UACC-62 melanoma = test system: UACC-62 melanoma
UO-31 renal = test system: UO-31 renal

COc1ccc(C2=NN(C=O)C(c3cccc(Nc4ccnc5cc(Cl)ccc45)c3)C2)cc1 (configuration not stated)
GI50 (786-0 renal): 3.43 µM | TGI (786-0 renal): 17.6 µM | GI50 (A498 renal): 1.35 µM | TGI (A498 renal): 9.26 µM | GI50 (A549 NSCLC): 4.63 µM | TGI (A549 NSCLC): > 100 µM | GI50 (ACHN renal): 4.59 µM | TGI (ACHN renal): 62.7 µM | GI50 (BT-549 breast): 1.93 µM | TGI (BT-549 breast): 9.87 µM | GI50 (CCRF-CEM leukemia): 2.14 µM | TGI (CCRF-CEM leukemia): 13.1 µM | GI50 (COLO 205 colon): 2.4 µM | TGI (COLO 205 colon): 9.88 µM | GI50 (DU-145 prostate): 3.62 µM | TGI (DU-145 prostate): 89.3 µM | GI50 (EKVX NSCLC): 2.8 µM | TGI (EKVX NSCLC): > 100 µM | GI50 (HCC-2998 colon): 11.7 µM | TGI (HCC-2998 colon): 94.3 µM | GI50 (HCT-116 colon): 1.84 µM | TGI (HCT-116 colon): 6.02 µM | GI50 (HCT-15 colon): 2.13 µM | TGI (HCT-15 colon): 17 µM | GI50 (HL-60(TB) leukemia): 2.03 µM | TGI (HL-60(TB) leukemia): 4.91 µM | GI50 (HOP-62 NSCLC): 2.11 µM | TGI (HOP-62 NSCLC): 16.6 µM | GI50 (HOP-92 NSCLC): 3.41 µM | TGI (HOP-92 NSCLC): > 100 µM | GI50 (HS 578T breast): 3.92 µM | TGI (HS 578T breast): 39.4 µM | GI50 (HT29 colon): 1.65 µM | TGI (HT29 colon): 9.7 µM | GI50 (IGROV1 ovarian): 3.71 µM | TGI (IGROV1 ovarian): > 100 µM | GI50 (K-562 leukemia): 0.511 µM | TGI (K-562 leukemia): 11.3 µM | GI50 (KM12 colon): 2.18 µM | TGI (KM12 colon): 37 µM | GI50 (LOX IMVI melanoma): 2.52 µM | TGI (LOX IMVI melanoma): 12.5 µM | GI50 (M14 melanoma): 2.34 µM | TGI (M14 melanoma): 15.9 µM | GI50 (MALME-3M melanoma): 2.04 µM | TGI (MALME-3M melanoma): 18.9 µM | GI50 (MCF7 breast): 1.59 µM | TGI (MCF7 breast): 39.4 µM | GI50 (MDA-MB-231 breast): 4 µM | TGI (MDA-MB-231 breast): 97 µM | GI50 (MDA-MB-435): 0.37 µM | TGI (MDA-MB-435): 13.1 µM | GI50 (MOLT-4 leukemia): 2.37 µM | TGI (MOLT-4 leukemia): 11.9 µM | GI50 (NCI-H226 lung): 3.13 µM | TGI (NCI-H226 lung): > 100 µM | GI50 (NCI-H23 lung): 1.87 µM | TGI (NCI-H23 lung): > 100 µM | GI50 (NCI-H460 lung): 2.73 µM | TGI (NCI-H460 lung): 15.7 µM | GI50 (NCI-H522 lung): 1.33 µM | TGI (NCI-H522 lung): 12.7 µM | GI50 (NCI/ADR-RES ovarian): 1.66 µM | TGI (NCI/ADR-RES ovarian): 31.7 µM | GI50 (OVCAR-3 ovarian): 1.97 µM | TGI (OVCAR-3 ovarian): 12.5 µM | GI50 (OVCAR-4 ovarian): 1.54 µM | TGI (OVCAR-4 ovarian): 31.8 µM | GI50 (OVCAR-5 ovarian): 11.3 µM | TGI (OVCAR-5 ovarian): > 100 µM | GI50 (OVCAR-8 ovarian): 3.29 µM | TGI (OVCAR-8 ovarian): 27.6 µM | GI50 (PC-3 prostate): 2.87 µM | TGI (PC-3 prostate): > 100 µM | GI50 (RPMI-8226 leukemia): 1.36 µM | TGI (RPMI-8226 leukemia): 11.2 µM | GI50 (RXF 393 renal): 1.66 µM | TGI (RXF 393 renal): 7.61 µM | GI50 (SF-268 CNS): 4.8 µM | TGI (SF-268 CNS): 88.7 µM | GI50 (SF-295 CNS): 1.24 µM | TGI (SF-295 CNS): 23 µM | GI50 (SF-539 CNS): 2.34 µM | TGI (SF-539 CNS): 7.41 µM | GI50 (SK-MEL-28 melanoma): 8.12 µM | TGI (SK-MEL-28 melanoma): 25.3 µM | GI50 (SK-MEL-5 melanoma): 0.922 µM | TGI (SK-MEL-5 melanoma): 3.71 µM | GI50 (SK-OV-3 ovarian): 3.33 µM | TGI (SK-OV-3 ovarian): 23.3 µM | GI50 (SN12C renal): 4.45 µM | TGI (SN12C renal): > 100 µM | GI50 (SNB-19 CNS): 5.11 µM | TGI (SNB-19 CNS): > 100 µM | GI50 (SNB-75 CNS): 2.56 µM | TGI (SNB-75 CNS): 38 µM | GI50 (SR leukemia): 0.583 µM | TGI (SR leukemia): 5.23 µM | GI50 (SW-620 colon): 1.73 µM | TGI (SW-620 colon): 13.2 µM | GI50 (T-47D breast): 1.39 µM | TGI (T-47D breast): 21 µM | GI50 (TK-10 renal): 4.24 µM | TGI (TK-10 renal): 20.2 µM | GI50 (U251 CNS): 2.77 µM | TGI (U251 CNS): 14.4 µM | GI50 (UACC-257 melanoma): 3.06 µM | TGI (UACC-257 melanoma): 28.5 µM | GI50 (UACC-62 melanoma): 2.41 µM | TGI (UACC-62 melanoma): 20.6 µM | GI50 (UO-31 renal): 3.25 µM | TGI (UO-31 renal): 64.6 µM
